Laboratory results from US8791268B2, “Vanilloid receptor ligands, pharmaceutical compositions containing them, process for making them, and use thereof for treating pain and other conditions” (Gruenenthal GmbH, priority 2007, dated 2014).

Legend:
Format in all cases: cell-based
[1] = target: vanilloid receptor (VR1) (Homo sapiens (Human), UniProt Q8NER1); assay: FLIPR Ca2+ influx assay on CHO-K1 cells transfected with the human VR1 gene, capsaicin stimulus (Pharmacological Method II)
Description: Furthermore, preference may be given to compounds of the invention of the general formulas I, Ia, Ib and Ic, which in the FLIPR assay using CHO—K1 cells, which have been transfected with the human VR1 gene in a concentration below 2000 nM, preferably below 1000 nM, more preferably below 300 nM, even more preferably below 100 nM, still more preferably below 75 nM, very preferably below 50 nM and most preferably below 10 nM, cause a 50 percent displacement of capsaicin present in a concentration of 100 nM. In the FLIPR assay, the Ca^2+ influx is quantified with the aid of a Ca^2+-sensitive dye (type Fluo-4, Molecular Probes Europe BV, Leiden, Netherlands) in a fluorescent imaging plate reader (FLIPR, Molecular Devices, Sunnyvale, USA), as described below.
II. Functional Investigations on the Vanilloid Receptor (VR1)
The agonistic or antagonistic action of the substances to be examined on the vanilloid receptor (VR1) can alternatively be determined by the following assay. According to this assay the Ca^2+ influx through the canal is quantified with the aid of a Ca^2+-sensitive dye (type Fluo-4, Molecular Probes, Europe BV, Leiden, Netherlands) in a fluorescent imaging plate reader (FLIPR, Molecular Devices, Sunnyvale, USA).
Chinese hamster ovary cells (CHO—K1 cells, European Collection of Cell Cultures (ECACC) UK) are stably transfected with the VR1 gene. For carrying out functional investigations, these cells are plated on poly-D-lysine-coated, black 96-well plates with a clear bottom (BD Biosciences, Heidelberg, Germany) in a density of 25,000 cells/well. The cells are incubated overnight at 37° C. and 5% CO2 in a culture medium (Nutrient Mixture ‘am’s F12, 10% by volume of FCS (fetal calf serum), 18 μg/mL of L-proline). On the following day the cells are incubated with Fluo-4 (Fluo-4 2 μM, Pluronic F127 0.01 by volume, Molecular Probes in HBSS (Hank's buffered saline solution), Gibco Invitrogen GmbH, Karlsruhe, Germany) for 30 minutes at 37° C. The plates are then washed 3 times with HBSS buffer and, after another incubation over a period of 15 minutes at RT, are used in the FLIPR for Ca^2+ measurement. The Ca^2+-dependent fluorescence is measured prior to and following the addition of the substances being examined (wavelength λex=488 nm, λem=540 nm). Quantification is carried out by measuring the highest fluorescence intensity (PC, fluorescence counts) over time.
The FLIPR protocol consists of two substance additions. First of all, the substances to be tested (10 μM) are pipeted onto the cells and the Ca^2+ influx is compared with the control (capsaicin 10 μM) (percentage activation based on the Ca^2+ signal following addition of 10 μM of capsaicin). Following incubation over a period of 5 minutes 100 nM of capsaicin are applied and the influx of Ca^2+ is likewise determined.
Desensitizing agonists and antagonists lead to a suppression of the Ca^2+ influx. The percentage inhibition compared with the maximum inhibition achieved with 10 μM of capsaicin is calculated.
Based on the percentage displacement effected by different concentrations of the compounds of the general formula Ito be tested, IC50 inhibition concentrations that cause 50 percent displacement of capsaicin are calculated. Conversion using the Cheng Prusoff equation gave Ki values for the test substances (Cheng, Prusoff; Bioch. Pharmacol. 22, 3099-3108, 1973).
The affinity of the compounds of the invention for the vanilloid receptor 1 (VR1/TRPV1-Receptor) was detected as described above (Pharmacological Methods I and II respectively).

[2] = target: vanilloid receptor 1 (VR1/TRPV1) (Rattus norvegicus (Rat), UniProt O35433); assay: FLIPR Ca2+ influx assay on rat dorsal root ganglia cells, capsaicin stimulus (Pharmacological Method I)
vanilloid receptor 1 (VR1/TRPV1), sequence (O35433 whole entry): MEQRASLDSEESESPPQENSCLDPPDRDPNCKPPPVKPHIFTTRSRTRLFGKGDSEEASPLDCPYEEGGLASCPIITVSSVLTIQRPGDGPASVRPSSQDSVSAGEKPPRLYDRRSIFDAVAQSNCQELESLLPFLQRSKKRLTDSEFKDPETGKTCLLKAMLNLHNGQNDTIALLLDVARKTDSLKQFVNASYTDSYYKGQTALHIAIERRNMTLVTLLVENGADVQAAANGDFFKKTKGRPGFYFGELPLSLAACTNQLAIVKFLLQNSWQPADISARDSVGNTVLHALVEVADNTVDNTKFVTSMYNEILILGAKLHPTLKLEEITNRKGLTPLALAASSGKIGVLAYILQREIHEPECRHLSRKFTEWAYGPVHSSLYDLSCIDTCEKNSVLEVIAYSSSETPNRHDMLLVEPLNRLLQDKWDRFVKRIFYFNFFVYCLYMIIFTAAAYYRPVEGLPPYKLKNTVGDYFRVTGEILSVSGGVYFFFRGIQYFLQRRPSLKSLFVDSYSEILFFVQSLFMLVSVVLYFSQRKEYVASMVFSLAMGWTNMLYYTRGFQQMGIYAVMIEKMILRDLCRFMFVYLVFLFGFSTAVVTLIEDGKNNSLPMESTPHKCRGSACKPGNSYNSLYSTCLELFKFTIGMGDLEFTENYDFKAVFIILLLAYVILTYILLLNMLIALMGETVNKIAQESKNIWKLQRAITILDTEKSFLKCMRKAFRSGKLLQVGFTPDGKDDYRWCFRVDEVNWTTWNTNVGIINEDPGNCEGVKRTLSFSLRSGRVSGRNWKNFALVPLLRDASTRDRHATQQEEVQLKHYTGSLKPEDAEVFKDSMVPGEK
Description: I. Functional Investigation on the Vanilloid Receptor 1 (VR1/TRPV1 Receptor)
The agonistic or antagonistic action of the substances to be investigated on the vanilloid receptor 1 (VR1/TRPV1) of the species rat can be determined using the following assay. According to this assay, the Ca^2+ influx through the receptor channel is quantified with the aid of a Ca^2+-sensitive dye (Type Fluo-4, Molecular Probes Europe BV, Leiden Netherlands) in a fluorescent imaging plate reader (FLIPR, Molecular Devices, Sunnyvale, USA).
Complete medium: 50 mL of HAMS F12 Nutrient Mixture (Gibco Invitrogen GmbH, Karlsruhe, Germany) with
10% by volume of FCS (fetal calf serum, Gibco Invitrogen GmbH, Karlsruhe, Germany, heat-inactivated);
2 mM of L-glutamine (Sigma, Munich, Germany);
1% by weight of AA solution (antibiotics/antimycotics solution, PAA, Pasching, Austria)
and 25 ng/mL of Medium NGF (2.5 S, Gibco Invitrogen GmbH, Karlsruhe, Germany) Cell culture plate: Poly-D-lysine-coated, black 96-well plates with a clear bottom (96-well black/clear plate, BD Biosciences, Heidelberg, Germany) are additionally coated with laminin (Gibco Invitrogen GmbH, Karlsruhe, Germany) by diluting laminin to a concentration of 100 μg/mL with PBS (Ca—Mg-free PBS, Gibco Invitrogen GmbH, Karlsruhe, Germany). Aliquots having a concentration of 100 μg/mL of laminin are taken and stored at −20° C. The aliquots are diluted with PBS in the ratio 1:10 to 10 μg/mL of laminin and in each case 50 μL of the solution is pipeted into a well of the cell culture plate. The cell culture plates are incubated at 37° C. for at least two hours, the supernatant solution is aspirated and the wells are in each case washed twice with PBS. The coated cell culture plates are stored with supernatant PBS and this is removed only directly before the addition of the cells.
Preparation of the Cells:
The vertebral column is removed from decapitated rats and this is laid directly in a cold, i.e. ice bath-surrounded, HBSS buffer (Hank's buffered saline solution, Gibco Invitrogen GmbH, Karlsruhe, Germany) and 1% by volume of an AA solution (antibiotics/antimycotics solution, PAA, Pasching, Austria) is added. The vertebral column is cut in two, longitudinally, and the vertebral canal is removed together with fascias. Subsequently, the dorsal root ganglia (DRGs) are removed and in turn stored in cold HBSS buffer to which 1% by volume of an AA solution has been added. The DRGs completely freed from blood residues and spinal nerves are in each case transferred to 500 μL of cold collagenase Type 2 (PAA, Pasching, Austria) and incubated at 37° C. for 35 minutes. After the addition of 2.5% by volume of trypsin (PAA, Pasching, Austria), the preparation is incubated at 37° C. for a further 10 minutes. On completion of incubation, the enzyme solution is carefully pipeted off and 500 μL of complete medium are added to the DRGs in each case. The DRGs are in each case repeatedly suspended, drawn through No. 1, No. 12, and No. 16 needles by means of a syringe and transferred to 50 mL Falcon tubes and these are filled to 15 mL with complete medium. The contents of each Falcon tube are in each case filtered through a 70 μm Falcon filter insert and centrifuged at 1200 rpm and RT for 10 minutes. The resulting pellet is in each case taken up in 250 μL of complete medium and the cell count is determined.
The number of cells in the suspension is adjusted to 3×10^5 per mL and in each case 150 μL of this suspension are added to a well of the cell culture plates coated as described above. The plates are allowed to stand at 37° C., 5% by volume of CO2 and 95% relative humidity for two to three days in an incubator. […]

[3] = target: VR1/TRPV1 receptor (Homo sapiens (Human), UniProt Q8NER1); assay: Inhibition of human VR1/TRPV1 following pH-stimulus; settings: ne = no effect, no reaction observed
VR1/TRPV1 receptor, sequence (Q8NER1 whole entry): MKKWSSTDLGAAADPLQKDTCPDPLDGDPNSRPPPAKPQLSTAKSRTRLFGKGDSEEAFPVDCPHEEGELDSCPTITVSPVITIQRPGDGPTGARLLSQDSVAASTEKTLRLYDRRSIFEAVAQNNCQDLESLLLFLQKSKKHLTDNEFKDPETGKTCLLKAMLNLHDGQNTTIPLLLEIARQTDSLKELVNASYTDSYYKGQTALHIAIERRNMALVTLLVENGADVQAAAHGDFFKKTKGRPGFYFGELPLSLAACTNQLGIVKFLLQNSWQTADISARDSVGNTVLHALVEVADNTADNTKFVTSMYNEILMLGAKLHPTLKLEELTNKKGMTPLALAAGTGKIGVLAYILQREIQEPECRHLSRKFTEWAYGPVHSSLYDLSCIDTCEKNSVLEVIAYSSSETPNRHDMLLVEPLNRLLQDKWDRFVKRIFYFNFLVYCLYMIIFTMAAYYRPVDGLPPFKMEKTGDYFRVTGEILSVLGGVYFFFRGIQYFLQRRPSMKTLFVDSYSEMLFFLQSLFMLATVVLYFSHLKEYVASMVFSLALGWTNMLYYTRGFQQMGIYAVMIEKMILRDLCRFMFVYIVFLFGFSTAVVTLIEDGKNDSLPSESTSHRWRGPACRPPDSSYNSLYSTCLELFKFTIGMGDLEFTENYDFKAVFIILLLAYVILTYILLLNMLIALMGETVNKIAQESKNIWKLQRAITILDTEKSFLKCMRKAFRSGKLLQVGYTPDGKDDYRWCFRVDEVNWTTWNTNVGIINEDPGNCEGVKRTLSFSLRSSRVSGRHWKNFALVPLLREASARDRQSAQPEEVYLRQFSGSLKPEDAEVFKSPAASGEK

vanilloid receptor (VR1), sequence (Q8NER1 whole entry): as above

Row | Structure (SMILES) | Ki [1] [nM] | Ki [2] [nM] | IC50 (Human) following pH-stimulus [3]
1 | CC1CCN(c2nc(C(F)(F)F)ccc2CNC(=O)C(C)c2cc(F)c(N)c(F)c2)CC1 (stereo not drawn) [Example 26, 2-(4-Amino-3,5-difluorophenyl)-N-((2-(4-methylpiperidin-1-yl)-6-(trifluoromethyl)pyridin-3-yl)methyl)propanamide] | 9.6 | 3.4 | ne
2 | CC1CCN(c2nc(C(F)(F)F)ccc2CNC(=O)Cc2cc(F)ccc2F)CC1 [Example 7, 2-(2,5-Difluorophenyl)-N-(4-methyl-6′-trifluoromethyl-3,4,5,6-tetrahydro-2H-[1,2′]bipyridinyl-3′-ylmethyl)acetamide] | 30 | 63 | ne
